From ChEMBL document CHEMBL2146384 (J Med Chem, 2012)

Assays:
[1] = test system: MX1; assay: Antitumor activity against human MX1 cells xenografted in Balb/cA JcL mouse at 15 mg/kg/day dosed as as continuous infusion measured on day 15; type: functional; details: MX1, 360 h
[2] = target: T1, Deoxyuridine 5'-triphosphate nucleotidohydrolase, mitochondrial (Homo sapiens, UniProt P33316); assay: Inhibition of human dUTPase-mediated formation of [5-3H]dUMP expressed in Escherichia coli BL21 (DE3) after 15 mins by HPLC analysis
T1 sequence (P33316 whole entry): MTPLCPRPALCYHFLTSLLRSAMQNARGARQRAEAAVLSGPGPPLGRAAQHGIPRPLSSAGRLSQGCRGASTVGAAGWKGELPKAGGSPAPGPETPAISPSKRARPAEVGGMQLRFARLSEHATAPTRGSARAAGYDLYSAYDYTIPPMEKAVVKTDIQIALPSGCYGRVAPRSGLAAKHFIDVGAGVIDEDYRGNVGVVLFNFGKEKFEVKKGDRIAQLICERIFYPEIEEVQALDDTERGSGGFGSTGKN

[3] = test system: Mus musculus; assay: Toxicity in Balb/cA JcL mouse xenografted with human MX1 cells assessed as mortality at 300 mg/kg/day, po co-administered with 5-FU at 15 mg/kg/day as continuous infusion measured on day 15; type: organism-based; details: in vivo
[4] = AUC (0 to t) in Balb/cA mouse at 50 mg/kg, po; type: ADME, organism-based; design: dose 50 mg/kg, route oral; details: plasma
[5] = Cmax in Balb/cA mouse at 50 mg/kg, po; type: ADME, organism-based; design: dose 50 mg/kg, route oral; details: in vivo
[6] = Half life in Balb/cA mouse at 50 mg/kg, po; type: ADME, organism-based; design: dose 50 mg/kg, route oral; details: in vivo
[7] = Tmax in Balb/cA mouse at 50 mg/kg, po; type: ADME, organism-based; design: dose 50 mg/kg, route oral; details: in vivo
[8] = test system: MX1; assay: Potentiation of 5-FU induced antitumor activity in human MX1 cells xenografted in Balb/cA JcL mouse at 300 mg/kg/day, po measured on day 15; type: functional; details: MX1, 360 h
[9] = test system: MX1; assay: Antitumor activity against human MX1 cells xenografted in Balb/cA JcL mouse at 300 mg/kg/day, po measured on day 15; type: functional; details: MX1, 360 h
[10] = test system: Mus musculus; assay: Toxicity in Balb/cA JcL mouse xenografted with human MX1 cells assessed as reduction of body weight at 300 mg/kg/day, po co-administered with 5-FU at 15 mg/kg/day as continuous infusion measured on day 15; type: organism-based; details: in vivo

Compound	IC50 [2] [µM]	further results
O=c1[nH]cc(F)c(=O)[nH]1 [FLUOROURACIL]	–	inhibition in vivo at 15 mg/kg/day [1]: 20%
CC(C)(NS(=O)(=O)c1cccc(OCC(F)F)c1)c1ccc(Cn2ccc(=O)[nH]c2=O)cc1	0.073	–
CC(C)(NS(=O)(=O)c1cccc(OCC2CC2)c1)c1ccc(Cn2ccc(=O)[nH]c2=O)cc1	0.073	–
CC(C)(CC/C=C/Cn1ccc(=O)[nH]c1=O)NS(=O)(=O)c1cccc(OCC(F)F)c1	0.026	–
CC(C)(CC/C=C/Cn1ccc(=O)[nH]c1=O)NS(=O)(=O)c1cccc(OC2CCCC2)c1	0.033	–
C[C@@H](NS(=O)(=O)CC/C=C/Cn1ccc(=O)[nH]c1=O)c1cccc(OC2CCCC2)c1	0.041	–
COc1cccc(S(=O)(=O)NC(C)(C)CC/C=C/Cn2ccc(=O)[nH]c2=O)c1	0.34	–
C[C@@H](NS(=O)(=O)c1ccc(Cn2ccc(=O)[nH]c2=O)cc1)c1cccc(OC2CCCC2)c1	0.43	–
CC(C)(NS(=O)(=O)c1ccccc1)c1ccc(Cn2ccc(=O)[nH]c2=O)cc1	1.8	–
C[C@@H](NS(=O)(=O)c1ccc(Cn2ccc(=O)[nH]c2=O)cc1)c1cccc(OCC(F)F)c1	0.41	–
C[C@@H](NS(=O)(=O)c1ccc(Cn2ccc(=O)[nH]c2=O)cc1)c1cccc(OCC2CC2)c1	0.82	–
COc1cccc(S(=O)(=O)NC(C)(C)c2ccc(Cn3ccc(=O)[nH]c3=O)cc2)c1	1.27	–
C[C@@H](NS(=O)(=O)CC/C=C/Cn1ccc(=O)[nH]c1=O)c1cccc(OCC2CC2)c1	0.039	Activity [3]: Non-toxic; AUC(0-t) [4]: 19.5 µM·h; Cmax [5]: 19.5 µM; half-life [6]: 53.4 min; Tmax [7]: 30 min; inhibition in vivo at 300 mg/kg/day [8]: 68%; inhibition in vivo at 300 mg/kg/day [9]: -29%; Activity [10]: Non-toxic
CC(C)(NS(=O)(=O)c1cccc(OC2CCCC2)c1)c1ccc(Cn2ccc(=O)[nH]c2=O)cc1	0.031	–
C[C@@H](NS(=O)(=O)CC/C=C/Cn1ccc(=O)[nH]c1=O)c1cccc(OCC(F)F)c1	0.082	–
CC(C)(CC/C=C/Cn1ccc(=O)[nH]c1=O)NS(=O)(=O)c1ccccc1	1.6	–
